{"source": "PubChem BioAssay AID1963841", "about": "(Molecular Pharmacology Branch, DTP, NCI, 2024);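 note: spheroids exposed to compounds for seven days before readout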;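 for viability, T/C: 100% = DMSO vehicle control viability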", "test_system": "439559-082-T-J2-PDC spheroid viability", "experiment": "Anticancer human tumor 439559-082-T-J2-PDC patient-derived colon adenocarcinoma cell line growth inhibition [POLQ]", "settings": "spheroids with HUVEC and MSC; for IC50: curve of first compound; for viability, T/C: stronger effect = lower value", "method_in_brief": "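PDC + HUVEC + MSC complex spheroids; POLQ inhibitors ± partner drugs; top conc. at/near clinical Cmax, else 10 microM (SN-38 1 microM), half-log dilutions; 37 degrees C, 5% CO2.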", "data": [{"smiles": "CC(=O)O[C@H]1C(=O)[C@@]2(C)[C@H]([C@H](OC(=O)c3ccccc3)[C@]3(O)C[C@H](OC(=O)[C@H](O)[C@@H](NC(=O)c4ccccc4)c4ccccc4)C(C)=C1C3(C)C)[C@]1(OC(C)=O)CO[C@@H]1C[C@@H]2O", "note": "+ Cc1cccc(N(C)C(=O)C2C(O)CCN2c2nc(C)cc(C(F)(F)F)c2C#N)c1", "values": [{"measurement": "IC50", "setting": "second compound 0.0316 µM", "result": 2190, "unit": "nM"}, {"measurement": "IC50", "setting": "second compound 0.1 µM", "result": 1780, "unit": "nM"}, {"measurement": "IC50", "setting": "second compound 0.316 µM", "result": 1900, "unit": "nM"}, {"measurement": "IC50", "setting": "second compound 1 µM", "result": 1710, "unit": "nM"}, {"measurement": "IC50", "setting": "second compound 3.16 µM", "result": 1430, "unit": "nM"}, {"measurement": "IC50", "setting": "second compound 10 µM", "result": 469, "unit": "nM"}, {"measurement": "viability, T/C", "setting": "second compound 0.0316 µM, first compound 0.00949 µM", "result": 77.2, "unit": "%"}, {"measurement": "viability, T/C", "setting": "second compound 0.0316 µM, first compound 0.03 µM", "result": 78.5, "unit": "%"}, {"measurement": "viability, T/C", "setting": "second compound 0.0316 µM, first compound 0.0949 µM", "result": 84.2, "unit": "%"}, {"measurement": "viability, T/C", "setting": "second compound 0.0316 µM, first compound 0.3 µM", "result": 81.3, "unit": "%"}, {"measurement": "viability, T/C", "setting": "second compound 0.0316 µM, first compound 0.949 µM", "result": 70.5, "unit": "%"}, {"measurement": "viability, T/C", "setting": "second compound 0.0316 µM, first compound 3 µM", "result": 41.5, "unit": "%"}, {"measurement": "viability, T/C", "setting": "second compound 0.1 µM, first compound 0.00949 µM", "result": 81.9, "unit": "%"}, {"measurement": "viability, T/C", "setting": "second compound 0.1 µM, first compound 0.03 µM", "result": 84.4, "unit": "%"}, {"measurement": "viability, T/C", "setting": "second compound 0.1 µM, first compound 0.0949 µM", "result": 77.4, "unit": "%"}, {"measurement": "viability, T/C", "setting": "second compound 0.1 µM, first compound 0.3 µM", "result": 72.7, "unit": "%"}, {"measurement": "viability, T/C", "setting": "second compound 0.1 µM, first compound 0.949 µM", "result": 66.4, "unit": "%"}, {"measurement": "viability, T/C", "setting": "second compound 0.1 µM, first compound 3 µM", "result": 37.8, "unit": "%"}, {"measurement": "viability, T/C", "setting": "second compound 0.316 µM, first compound 0.00949 µM", "result": 85.4, "unit": "%"}, {"measurement": "viability, T/C", "setting": "second compound 0.316 µM, first compound 0.03 µM", "result": 86.6, "unit": "%"}, {"measurement": "viability, T/C", "setting": "second compound 0.316 µM, first compound 0.0949 µM", "result": 78.5, "unit": "%"}, {"measurement": "viability, T/C", "setting": "second compound 0.316 µM, first compound 0.3 µM", "result": 74.6, "unit": "%"}, {"measurement": "viability, T/C", "setting": "second compound 0.316 µM, first compound 0.949 µM", "result": 61, "unit": "%"}, {"measurement": "viability, T/C", "setting": "second compound 0.316 µM, first compound 3 µM", "result": 42.6, "unit": "%"}, {"measurement": "viability, T/C", "setting": "second compound 1 µM, first compound 0.00949 µM", "result": 92, "unit": "%"}, {"measurement": "viability, T/C", "setting": "second compound 1 µM, first compound 0.03 µM", "result": 82, "unit": "%"}, {"measurement": "viability, T/C", "setting": "second compound 1 µM, first compound 0.0949 µM", "result": 79.4, "unit": "%"}, {"measurement": "viability, T/C", "setting": "second compound 1 µM, first compound 0.3 µM", "result": 75.2, "unit": "%"}, {"measurement": "viability, T/C", "setting": "second compound 1 µM, first compound 0.949 µM", "result": 65.2, "unit": "%"}, {"measurement": "viability, T/C", "setting": "second compound 1 µM, first compound 3 µM", "result": 36.9, "unit": "%"}, {"measurement": "viability, T/C", "setting": "second compound 3.16 µM, first compound 0.00949 µM", "result": 77.1, "unit": "%"}, {"measurement": "viability, T/C", "setting": "second compound 3.16 µM, first compound 0.03 µM", "result": 71.5, "unit": "%"}, {"measurement": "viability, T/C", "setting": "second compound 3.16 µM, first compound 0.0949 µM", "result": 74.1, "unit": "%"}, {"measurement": "viability, T/C", "setting": "second compound 3.16 µM, first compound 0.3 µM", "result": 70.4, "unit": "%"}, {"measurement": "viability, T/C", "setting": "second compound 3.16 µM, first compound 0.949 µM", "result": 55, "unit": "%"}, {"measurement": "viability, T/C", "setting": "second compound 3.16 µM, first compound 3 µM", "result": 37.4, "unit": "%"}, {"measurement": "viability, T/C", "setting": "second compound 10 µM, first compound 0.00949 µM", "result": 85.1, "unit": "%"}, {"measurement": "viability, T/C", "setting": "second compound 10 µM, first compound 0.03 µM", "result": 74.2, "unit": "%"}, {"measurement": "viability, T/C", "setting": "second compound 10 µM, first compound 0.0949 µM", "result": 74.4, "unit": "%"}, {"measurement": "viability, T/C", "setting": "second compound 10 µM, first compound 0.3 µM", "result": 51.9, "unit": "%"}, {"measurement": "viability, T/C", "setting": "second compound 10 µM, first compound 0.949 µM", "result": 44.4, "unit": "%"}, {"measurement": "viability, T/C", "setting": "second compound 10 µM, first compound 3 µM", "result": 36.8, "unit": "%"}]}, {"smiles": "CCCS(=O)(=O)Nc1ccc(F)c(C(=O)c2c[nH]c3ncc(-c4ccc(Cl)cc4)cc23)c1F", "note": "+ Cc1cccc(N(C)C(=O)C2C(O)CCN2c2nc(C)cc(C(F)(F)F)c2C#N)c1", "values": [{"measurement": "IC50", "setting": "second compound 0.0316 µM", "result": "> 10000", "unit": "nM"}, {"measurement": "IC50", "setting": "second compound 0.1 µM", "result": "> 10000", "unit": "nM"}, {"measurement": "IC50", "setting": "second compound 0.316 µM", "result": "> 10000", "unit": "nM"}, {"measurement": "IC50", "setting": "second compound 1 µM", "result": "> 10000", "unit": "nM"}, {"measurement": "IC50", "setting": "second compound 3.16 µM", "result": "> 10000", "unit": "nM"}, {"measurement": "IC50", "setting": "second compound 10 µM", "result": "> 10000", "unit": "nM"}, {"measurement": "viability, T/C", "setting": "second compound 0.0316 µM, first compound 0.0316 µM", "result": 103, "unit": "%"}, {"measurement": "viability, T/C", "setting": "second compound 0.0316 µM, first compound 0.1 µM", "result": 106, "unit": "%"}, {"measurement": "viability, T/C", "setting": "second compound 0.0316 µM, first compound 0.316 µM", "result": 92.1, "unit": "%"}, {"measurement": "viability, T/C", "setting": "second compound 0.0316 µM, first compound 1 µM", "result": 97, "unit": "%"}, {"measurement": "viability, T/C", "setting": "second compound 0.0316 µM, first compound 3.16 µM", "result": 94.8, "unit": "%"}, {"measurement": "viability, T/C", "setting": "second compound 0.0316 µM, first compound 10 µM", "result": 80.3, "unit": "%"}, {"measurement": "viability, T/C", "setting": "second compound 0.1 µM, first compound 0.0316 µM", "result": 100, "unit": "%"}, {"measurement": "viability, T/C", "setting": "second compound 0.1 µM, first compound 0.1 µM", "result": 96.1, "unit": "%"}, {"measurement": "viability, T/C", "setting": "second compound 0.1 µM, first compound 0.316 µM", "result": 91.5, "unit": "%"}, {"measurement": "viability, T/C", "setting": "second compound 0.1 µM, first compound 1 µM", "result": 94.4, "unit": "%"}, {"measurement": "viability, T/C", "setting": "second compound 0.1 µM, first compound 3.16 µM", "result": 113, "unit": "%"}, {"measurement": "viability, T/C", "setting": "second compound 0.1 µM, first compound 10 µM", "result": 75.8, "unit": "%"}, {"measurement": "viability, T/C", "setting": "second compound 0.316 µM, first compound 0.0316 µM", "result": 93.5, "unit": "%"}, {"measurement": "viability, T/C", "setting": "second compound 0.316 µM, first compound 0.1 µM", "result": 94.4, "unit": "%"}, {"measurement": "viability, T/C", "setting": "second compound 0.316 µM, first compound 0.316 µM", "result": 106, "unit": "%"}, {"measurement": "viability, T/C", "setting": "second compound 0.316 µM, first compound 1 µM", "result": 86, "unit": "%"}, {"measurement": "viability, T/C", "setting": "second compound 0.316 µM, first compound 3.16 µM", "result": 99.4, "unit": "%"}, {"measurement": "viability, T/C", "setting": "second compound 0.316 µM, first compound 10 µM", "result": 79.5, "unit": "%"}, {"measurement": "viability, T/C", "setting": "second compound 1 µM, first compound 0.0316 µM", "result": 96.2, "unit": "%"}, {"measurement": "viability, T/C", "setting": "second compound 1 µM, first compound 0.1 µM", "result": 103, "unit": "%"}, {"measurement": "viability, T/C", "setting": "second compound 1 µM, first compound 0.316 µM", "result": 92.8, "unit": "%"}, {"measurement": "viability, T/C", "setting": "second compound 1 µM, first compound 1 µM", "result": 95.3, "unit": "%"}, {"measurement": "viability, T/C", "setting": "second compound 1 µM, first compound 3.16 µM", "result": 91.5, "unit": "%"}, {"measurement": "viability, T/C", "setting": "second compound 1 µM, first compound 10 µM", "result": 78.3, "unit": "%"}, {"measurement": "viability, T/C", "setting": "second compound 3.16 µM, first compound 0.0316 µM", "result": 99, "unit": "%"}, {"measurement": "viability, T/C", "setting": "second compound 3.16 µM, first compound 0.1 µM", "result": 90.2, "unit": "%"}, {"measurement": "viability, T/C", "setting": "second compound 3.16 µM, first compound 0.316 µM", "result": 94.9, "unit": "%"}, {"measurement": "viability, T/C", "setting": "second compound 3.16 µM, first compound 1 µM", "result": 102, "unit": "%"}, {"measurement": "viability, T/C", "setting": "second compound 3.16 µM, first compound 3.16 µM", "result": 102, "unit": "%"}, {"measurement": "viability, T/C", "setting": "second compound 3.16 µM, first compound 10 µM", "result": 74.4, "unit": "%"}, {"measurement": "viability, T/C", "setting": "second compound 10 µM, first compound 0.0316 µM", "result": 101, "unit": "%"}, {"measurement": "viability, T/C", "setting": "second compound 10 µM, first compound 0.1 µM", "result": 96.3, "unit": "%"}, {"measurement": "viability, T/C", "setting": "second compound 10 µM, first compound 0.316 µM", "result": 82.8, "unit": "%"}, {"measurement": "viability, T/C", "setting": "second compound 10 µM, first compound 1 µM", "result": 90.2, "unit": "%"}, {"measurement": "viability, T/C", "setting": "second compound 10 µM, first compound 3.16 µM", "result": 90.2, "unit": "%"}, {"measurement": "viability, T/C", "setting": "second compound 10 µM, first compound 10 µM", "result": 70.5, "unit": "%"}]}]}
